# In ChEMBL document CHEMBL5724806, “Unraveling interindividual differences and functional consequences of gut microbial metabolism of immunosuppressants” (2024):
# Key:
# Type in all cases: ADME
# [1] = (§1) The drug is tested on Actinomyces naeslundi strain: DSM43013 for biotransformation under anaerobic condition. The drug concentrations were measured over 6 timepoints collected between 0 and 12 hours of incubation by liquid-chromatography-coupled mass spectrometry (LC–MS); design: dose 5 uM, timepoint 0, 1.5, 3, 6, 9, 12 hours; conditions: actinomyces naeslundii, 5 µM
# [2] = The drug is tested on Bifidobacterium longum strain: DSM20088 for biotransformation under anaerobic condition. The drug concentrations were measured over 6 timepoints collected between 0 and 12 hours of incubation by liquid-chromatography-coupled mass spectrometry (LC–MS); design: dose 5 uM, timepoint 0, 1.5, 3, 6, 9, 12 hours; conditions: 5 µM
# [3] = The drug is tested on Collinsella aerofaciens strain: DSM3979 for biotransformation under anaerobic condition. The drug concentrations were measured over 6 timepoints collected between 0 and 12 hours of incubation by liquid-chromatography-coupled mass spectrometry (LC–MS); design: dose 5 uM, timepoint 0, 1.5, 3, 6, 9, 12 hours; conditions: 5 µM
# [4] = The drug is tested on Bacteroides ovatus strain: ATCC 8483 for biotransformation under anaerobic condition. The drug concentrations were measured over 6 timepoints collected between 0 and 12 hours of incubation by liquid-chromatography-coupled mass spectrometry (LC–MS); design: dose 5 uM, timepoint 0, 1.5, 3, 6, 9, 12 hours; conditions: 5 µM
# [5] = The drug is tested on Bacteroides stercoris strain: HM 1036 for biotransformation under anaerobic condition. The drug concentrations were measured over 6 timepoints collected between 0 and 12 hours of incubation by liquid-chromatography-coupled mass spectrometry (LC–MS); design: dose 5 uM, timepoint 0, 1.5, 3, 6, 9, 12 hours; conditions: 5 µM
# [6] = The drug is tested on Bacteroides thetaiotaomicron strain: DSM2079 for biotransformation under anaerobic condition. The drug concentrations were measured over 6 timepoints collected between 0 and 12 hours of incubation by liquid-chromatography-coupled mass spectrometry (LC–MS); design: dose 5 uM, timepoint 0, 1.5, 3, 6, 9, 12 hours; conditions: 5 µM
# [7] = The drug is tested on Bacteroides vulgatus strain: DSM1447 for biotransformation under anaerobic condition. The drug concentrations were measured over 6 timepoints collected between 0 and 12 hours of incubation by liquid-chromatography-coupled mass spectrometry (LC–MS); design: dose 5 uM, timepoint 0, 1.5, 3, 6, 9, 12 hours; conditions: phocaeicola vulgatus, 5 µM
# [8] = The drug is tested on Odoribacter splanchnicus strain: DSM20712 for biotransformation under anaerobic condition. The drug concentrations were measured over 6 timepoints collected between 0 and 12 hours of incubation by liquid-chromatography-coupled mass spectrometry (LC–MS); design: dose 5 uM, timepoint 0, 1.5, 3, 6, 9, 12 hours; conditions: 5 µM
# [9] = The drug is tested on Clostridium bolteae strain: DSM15670 for biotransformation under anaerobic condition. The drug concentrations were measured over 6 timepoints collected between 0 and 12 hours of incubation by liquid-chromatography-coupled mass spectrometry (LC–MS); design: dose 5 uM, timepoint 0, 1.5, 3, 6, 9, 12 hours; conditions: enterocloster bolteae, 5 µM
# [10] = The drug is tested on Coprococcus comes strain: ATCC27758 for biotransformation under anaerobic condition. The drug concentrations were measured over 6 timepoints collected between 0 and 12 hours of incubation by liquid-chromatography-coupled mass spectrometry (LC–MS); design: dose 5 uM, timepoint 0, 1.5, 3, 6, 9, 12 hours; conditions: 5 µM
# [11] = The drug is tested on Roseburia intestinalis strain: DSM14610 for biotransformation under anaerobic condition. The drug concentrations were measured over 6 timepoints collected between 0 and 12 hours of incubation by liquid-chromatography-coupled mass spectrometry (LC–MS); design: dose 5 uM, timepoint 0, 1.5, 3, 6, 9, 12 hours; conditions: 5 µM
# [12] = The drug is tested on Ruminococcus gnavus strain: ATCC29149 for biotransformation under anaerobic condition. The drug concentrations were measured over 6 timepoints collected between 0 and 12 hours of incubation by liquid-chromatography-coupled mass spectrometry (LC–MS); design: dose 5 uM, timepoint 0, 1.5, 3, 6, 9, 12 hours; conditions: mediterraneibacter gnavus, 5 µM
# [13] = The drug is tested on Streptococcus mitis strain: DSM12643 for biotransformation under anaerobic condition. The drug concentrations were measured over 6 timepoints collected between 0 and 12 hours of incubation by liquid-chromatography-coupled mass spectrometry (LC–MS); design: dose 5 uM, timepoint 0, 1.5, 3, 6, 9, 12 hours; conditions: 5 µM
# [14] = The drug is tested on Escherichia coli strain: DSM27469 for biotransformation under anaerobic condition. The drug concentrations were measured over 6 timepoints collected between 0 and 12 hours of incubation by liquid-chromatography-coupled mass spectrometry (LC–MS); design: dose 5 uM, timepoint 0, 1.5, 3, 6, 9, 12 hours; conditions: 5 µM
# [15] = (§2) The drug is tested on Alloscardovia omnicolens strain: DSM21503 for biotransformation under microaerobic condition. The drug concentrations were measured over 6 timepoints collected between 0 and 12 hours of incubation by liquid-chromatography-coupled mass spectrometry (LC–MS); design: dose 5 uM, timepoint 0, 1.5, 3, 6, 9, 12 hours; conditions: 5 µM
# [16] = The drug is tested on Bifidobacterium longum strain: DSM20088 for biotransformation under microaerobic condition. The drug concentrations were measured over 6 timepoints collected between 0 and 12 hours of incubation by liquid-chromatography-coupled mass spectrometry (LC–MS); design: dose 5 uM, timepoint 0, 1.5, 3, 6, 9, 12 hours; conditions: 5 µM
# [17] = The drug is tested on Gemella morbillorum strain: DSM20572 for biotransformation under microaerobic condition. The drug concentrations were measured over 6 timepoints collected between 0 and 12 hours of incubation by liquid-chromatography-coupled mass spectrometry (LC–MS); design: dose 5 uM, timepoint 0, 1.5, 3, 6, 9, 12 hours; conditions: 5 µM
# [18] = The drug is tested on Enterococcus faecalis strain: ATCC29212 for biotransformation under microaerobic condition. The drug concentrations were measured over 6 timepoints collected between 0 and 12 hours of incubation by liquid-chromatography-coupled mass spectrometry (LC–MS); design: dose 5 uM, timepoint 0, 1.5, 3, 6, 9, 12 hours; conditions: 5 µM
# [19] = as §1, with “the gut metagenome community of A-03 with ENA study accession number: PRJEB31790” for “Actinomyces naeslundi strain: DSM43013”, “7” for “6”; design: dose 5 uM, timepoint 0, 0.75, 1.5, 3, 6, 9, 12 hours; conditions: 5 µM
# [20] = as §1, with “the gut metagenome community of A-04 with ENA study accession number: PRJEB31790” for “Actinomyces naeslundi strain: DSM43013”, “7” for “6”; design: dose 5 uM, timepoint 0, 0.75, 1.5, 3, 6, 9, 12 hours; conditions: 5 µM
# [21] = as §1, with “the gut metagenome community of A-08 with ENA study accession number: PRJEB31790” for “Actinomyces naeslundi strain: DSM43013”, “7” for “6”; design: dose 5 uM, timepoint 0, 0.75, 1.5, 3, 6, 9, 12 hours; conditions: 5 µM
# [22] = as §1, with “the gut metagenome community of P-03 with ENA study accession number: PRJEB31790” for “Actinomyces naeslundi strain: DSM43013”, “7” for “6”; design: dose 5 uM, timepoint 0, 0.75, 1.5, 3, 6, 9, 12 hours; conditions: 5 µM
# [23] = as §1, with “the gut metagenome community of T-01 with ENA study accession number: PRJEB31790” for “Actinomyces naeslundi strain: DSM43013”, “7” for “6”; design: dose 5 uM, timepoint 0, 0.75, 1.5, 3, 6, 9, 12 hours; conditions: 5 µM
# [24] = as §2, with “the gut metagenome community of A-02 with ENA study accession number: PRJEB31790” for “Alloscardovia omnicolens strain: DSM21503”, “7” for “6”; design: dose 5 uM, timepoint 0, 0.75, 1.5, 3, 6, 9, 12 hours; conditions: 5 µM
# [25] = as §2, with “the gut metagenome community of A-04 with ENA study accession number: PRJEB31790” for “Alloscardovia omnicolens strain: DSM21503”, “7” for “6”; design: dose 5 uM, timepoint 0, 0.75, 1.5, 3, 6, 9, 12 hours; conditions: 5 µM
# [26] = as §2, with “the gut metagenome community of A-07 with ENA study accession number: PRJEB31790” for “Alloscardovia omnicolens strain: DSM21503”, “7” for “6”; design: dose 5 uM, timepoint 0, 0.75, 1.5, 3, 6, 9, 12 hours; conditions: 5 µM
# [27] = as §2, with “the gut metagenome community of P-02 with ENA study accession number: PRJEB31790” for “Alloscardovia omnicolens strain: DSM21503”, “7” for “6”; design: dose 5 uM, timepoint 0, 0.75, 1.5, 3, 6, 9, 12 hours; conditions: 5 µM
# [28] = as §2, with “the gut metagenome community of T-01 with ENA study accession number: PRJEB31790” for “Alloscardovia omnicolens strain: DSM21503”, “7” for “6”; design: dose 5 uM, timepoint 0, 0.75, 1.5, 3, 6, 9, 12 hours; conditions: 5 µM
# [29] = as §2, with “the gut metagenome community of T-03 with ENA study accession number: PRJEB31790” for “Alloscardovia omnicolens strain: DSM21503”, “7” for “6”; design: dose 5 uM, timepoint 0, 0.75, 1.5, 3, 6, 9, 12 hours; conditions: 5 µM
# [30] = as §2, with “the gut metagenome community of T-04 with ENA study accession number: PRJEB31790” for “Alloscardovia omnicolens strain: DSM21503”, “7” for “6”; design: dose 5 uM, timepoint 0, 0.75, 1.5, 3, 6, 9, 12 hours; conditions: 5 µM
Compound,Bacterial Biotransformation [1],Bacterial Biotransformation [2],Bacterial Biotransformation [3],Bacterial Biotransformation [4],Bacterial Biotransformation [5],Bacterial Biotransformation [6],Bacterial Biotransformation [7],Bacterial Biotransformation [8],Bacterial Biotransformation [9],Bacterial Biotransformation [10],Bacterial Biotransformation [11],Bacterial Biotransformation [12],Bacterial Biotransformation [13],Bacterial Biotransformation [14],Bacterial Biotransformation [15],Bacterial Biotransformation [16],Bacterial Biotransformation [17],Bacterial Biotransformation [18],Bacterial Biotransformation [19],Bacterial Biotransformation [20],other results
C[C@]12C=CC(=O)C=C1CC[C@@H]1[C@@H]2[C@@H](O)C[C@@]2(C)[C@H]1CC[C@]2(O)C(=O)CO [PREDNISOLONE],Compound NOT metabolized,Compound NOT metabolized,Compound NOT metabolized,Compound NOT metabolized,Compound NOT metabolized,Compound NOT metabolized,Compound NOT metabolized,Compound NOT metabolized,Compound NOT metabolized,Compound NOT metabolized,Compound NOT metabolized,Compound metabolized,Compound NOT metabolized,Compound NOT metabolized,Compound NOT metabolized,Compound NOT metabolized,Compound NOT metabolized,Compound NOT metabolized,Compound metabolized,Compound metabolized,Bacterial Biotransformation [21]: Compound metabolized; Bacterial Biotransformation [22]: Compound metabolized; Bacterial Biotransformation [23]: Compound NOT metabolized; Bacterial Biotransformation [24]: Compound metabolized; Bacterial Biotransformation [25]: Compound metabolized; Bacterial Biotransformation [26]: Compound metabolized; Bacterial Biotransformation [27]: Compound metabolized; Bacterial Biotransformation [28]: Compound NOT metabolized; Bacterial Biotransformation [29]: Compound NOT metabolized; Bacterial Biotransformation [30]: Compound NOT metabolized
CO[C@H]1C[C@@H]2CC[C@@H](C)[C@@](O)(O2)C(=O)C(=O)N2CCCC[C@H]2C(=O)O[C@H]([C@H](C)C[C@@H]2CC[C@@H](OCCO)[C@H](OC)C2)CC(=O)[C@H](C)/C=C(\C)[C@@H](O)[C@@H](OC)C(=O)[C@H](C)C[C@H](C)/C=C/C=C/C=C/1C [EVEROLIMUS],Compound NOT metabolized,Compound NOT metabolized,Compound metabolized,Compound NOT metabolized,Compound NOT metabolized,Compound NOT metabolized,Compound NOT metabolized,Compound NOT metabolized,Compound metabolized,Compound metabolized,Compound metabolized,Compound NOT metabolized,Compound NOT metabolized,Compound NOT metabolized,Compound NOT metabolized,Compound NOT metabolized,Compound NOT metabolized,Compound NOT metabolized,Compound metabolized,Compound metabolized,Bacterial Biotransformation [21]: Compound metabolized; Bacterial Biotransformation [22]: Compound NOT metabolized; Bacterial Biotransformation [23]: Compound NOT metabolized; Bacterial Biotransformation [24]: Compound metabolized; Bacterial Biotransformation [25]: Compound metabolized; Bacterial Biotransformation [26]: Compound metabolized; Bacterial Biotransformation [27]: Compound NOT metabolized; Bacterial Biotransformation [28]: Compound NOT metabolized; Bacterial Biotransformation [29]: Compound NOT metabolized; Bacterial Biotransformation [30]: Compound NOT metabolized
CNC(=C[N+](=O)[O-])NCCSCc1ccc(CN(C)C)o1 [RANITIDINE],Compound NOT metabolized,Compound NOT metabolized,Compound NOT metabolized,Compound metabolized,Compound NOT metabolized,Compound NOT metabolized,Compound NOT metabolized,Compound NOT metabolized,Compound NOT metabolized,Compound NOT metabolized,Compound NOT metabolized,Compound NOT metabolized,Compound NOT metabolized,Compound NOT metabolized,Compound NOT metabolized,Compound NOT metabolized,Compound NOT metabolized,Compound metabolized,Compound metabolized,Compound metabolized,Bacterial Biotransformation [21]: Compound NOT metabolized; Bacterial Biotransformation [22]: Compound metabolized; Bacterial Biotransformation [23]: Compound NOT metabolized; Bacterial Biotransformation [24]: Compound metabolized; Bacterial Biotransformation [25]: Compound metabolized; Bacterial Biotransformation [26]: Compound metabolized; Bacterial Biotransformation [27]: Compound NOT metabolized; Bacterial Biotransformation [28]: Compound NOT metabolized; Bacterial Biotransformation [29]: Compound NOT metabolized; Bacterial Biotransformation [30]: Compound NOT metabolized
